The results in this text go back to publication PMC8370991, “Structural basis for the inhibition of HTLV-1 integration inferred from cryo-EM deltaretroviral intasome structures” (Nature Communications, 2021).

This assay deals with HTLV-1. Put plainly: Alu-qPCR of integrated provirus in HTLV-1 infected Jurkat cells. Type of assay: cell-based. The note with it: normalized to GAPDH. The method, then:
The HTLV-1 cell-to-cell infection was performed as previously described; Jurkat T cells were counted and diluted in complete RPMI to a final concentration of 0.25 × 10^6 cells/ml and pre-treated with INSTI drugs (final concentration ranging from 0.2 pM to 2 μM) or DMSO as a control for 24 h. MT-2 cells were resuspended in RPMI at a concentration of 2 × 10^6 cells/ml and subjected to a nonlethal γ-radiation dose of 400 Gy. Cells were resuspended at a concentration of 2 × 10^6 cells/ml in serum-free RPMI supplemented with the corresponding INSTI drug. Co-culture of 0.5 × 10^6 for each cell line was carried out for 16 h, after which cells were washed in PBS and resuspended in 1 ml of depletion buffer (PBS, 0.1% FBS and 2 mM EGTA). MT-2 cells were depleted from the culture by means of anti-CD25 magnetic beads (DynabeadsTM CD25, Thermo Fisher). Depletion efficiency was confirmed via flow cytometry as described previously. Jurkat cells were cultured for 2 weeks in complete RPMI supplemented with the drugs and genomic DNA was extracted (DNeasy kit, Qiagen) and stored at −20 °C for subsequent analysis. All the experiments were done in triplicate.
The PVL was measured as previously described[9],[53],[54]. Jurkat genomic DNA was quantified and diluted to a concentration of 5 ng/μL. Real-time qPCR analysis were conducted on 20 ng of gDNA to measure the level of HTLV-1 tax and gapdh genes (Supplementary Table 5). For the standard curve, the gDNA from an HTLV-1 naturally infected T-cell clone (clone 11.50, courtesy of professor Charles Bangham), which has one copy of tax and two of gapdh, was used. The integrated provirus copy number was calculated as follows: (tax copy numbers)/(2×gapdh copy number)[53], and normalised to the DMSO-treated control which was set to 100%. The PVL data were fitted to a dose–response curve in Prism 7 and the EC50 was calculated. Alu-PCR was performed as previously described in ref. [55]. In brief, the first PCR reaction was done with Phusion polymerase starting from 80 ng of gDNA using the ALU-specific primers (Alu-F/Gag-R). The nested PCR was run diluting the amplificated product 1:50. The reaction was done as a qPCR using Gag-specific primers (Gag-R/Gag-F) and the Luna SYBR dye reaction mix (New England Biolabs). The integrated provirus copy numbers were normalised to GAPDH and Jurkat cells treated with DMSO and infected with HTLV-1 were set to 100%. Experiments were done in triplicate. […]
Supplementary Figure 6 | Integrated provirus was quantified by Alu-qPCR.
Values were normalized to GAPDH. Uninfected represents uninfected Jurkat cells, acting as negative control. Condition without any drug present (DMSO) was set as 100%. Mean values and standard deviations are shown for n = three biologically independent experiments. P-values were calculated with respect to the DMSO control using the unpaired t-test with Welch’s correction in Prism 9. P-values are two-sided.
(Real-time PCR tracks product formation cycle by cycle.)

Turning to `Nc1c(C(=O)NCc2ccc(F)cc2F)c(=O)n(O)c2ncc(CCS(=O)(=O)c3ccccc3)cc12` [XZ446, 4-amino-N-(2,4-difluorobenzyl)-1-hydroxy-2-oxo-6-(2-(phenylsulfonyl)ethyl)-1,2-dihydro-1,8-naphthyridine-3-carboxamide], the “Integrated provirus by Alu-qPCR (DMSO = 100%)” value (Replicate 1) is recorded as 13.9354%, the “Integrated provirus by Alu-qPCR (DMSO = 100%)” value (Replicate 2) was 1.128% and the “Integrated provirus by Alu-qPCR (DMSO = 100%)” value (Replicate 3) was determined as 3.891%.
Taken in the same sequence, the figures for `CC(C)n1c(C(=O)N(C)C)c2c(c(O)c1=O)C(=O)N(Cc1ccc(F)c(Cl)c1)CC2` [XZ236, 6-(3-chloro-4-fluorobenzyl)-4-hydroxy-2-isopropyl-N,N-dimethyl-3,5-dioxo-2,3,5,6,7,8-hexahydro-2,6-naphthyridine-1-carboxamide, reference compound] were 4.2364%, 4.296% and 2.243%.
For `Nc1c(C(=O)NCc2ccc(F)cc2F)c(=O)n(O)c2ncc(CCC(=O)NCCO)cc12` [XZ448, 4-amino-N-(2,4-difluorobenzyl)-1-hydroxy-6-(3-((2-hydroxyethyl)amino)-3-oxopropyl)-2-oxo-1,2-dihydro-1,8-naphthyridine-3-carboxamide], the “Integrated provirus by Alu-qPCR (DMSO = 100%)” value is recorded as 25.215% (Replicate 1), 64.5778% (Replicate 2) and 27.0471% (Replicate 3).
Regarding `CN(C)C(=O)CCc1cnc2c(c1)c(N)c(C(=O)NCc1ccc(F)cc1F)c(=O)n2O` [XZ450, 4-amino-N-(2,4-difluorobenzyl)-6-(3-(dimethylamino)-3-oxopropyl)-1-hydroxy-2-oxo-1,2-dihydro-1,8-naphthyridine-3-carboxamide], the “Integrated provirus by Alu-qPCR (DMSO = 100%)” value amounted to 0.2536% (Replicate 1), 0.5264% (Replicate 2) and 0.2229% (Replicate 3).
For the compound `Nc1c(C(=O)NCc2ccc(F)cc2F)c(=O)n(O)c2ncc(CCCO)cc12` [XZ423, 4-amino-N-(2,4-difluorobenzyl)-1-hydroxy-6-(3-hydroxypropyl)-2-oxo-1,2-dihydro-1,8-naphthyridine-3-carboxamide], the “Integrated provirus by Alu-qPCR (DMSO = 100%)” value was 2.519% (Replicate 1), 0.166% (Replicate 2) and 0.06882% (Replicate 3).
